Reference: US4457928A, “Cephem compounds” (Fujisawa Pharmaceutical Co., Ltd., priority 1980, dated 1984)
Converted amounts (≈) assume the structure as drawn.

How the values were obtained:
Experiment in all cases: minimal inhibitory concentration (MIC), agar streak test
Assay type in all cases: cell-based
B. subtilis ATCC 6633 = conditions: Bacillus subtilis, ATCC6633, heart infusion agar, 37° C., 20 hours, 10^8 viable cells per ml
Experimental: (§1) One loopful of an overnight culture of each test strain in Trypticase-soy broth (10^8 viable cells per ml.) was streaked on heart infusion agar (HI-agar) containing graded concentrations of antibiotics, and the minimal inhibitory concentration (MIC) was expressed in terms of μg/ml after incubation at 37° C. for 20 hours.

Ps. aeruginosa 2 = conditions: Pseudomonas aeruginosa, heart infusion agar, 37° C., 20 hours, 10^8 viable cells per ml
Experimental: as §1

S. marcescens 35 = conditions: Serratia marcescens, heart infusion agar, 37° C., 20 hours, 10^8 viable cells per ml
Experimental: as §1

MIC (B. subtilis ATCC 6633) [µg/mL] | MIC (Ps. aeruginosa 2) [µg/mL] | MIC (S. marcescens 35) [µg/mL] | Compound
0.78 (≈ 1.5 µM) | 6.25 (≈ 12 µM) | 3.13 (≈ 6.02 µM) | CCO/N=C(\C(=O)NC1C(=O)N2C(C(=O)[O-])=C(C[n+]3cccc(CO)c3)CSC12)c1nsc(N)n1 (stereo not drawn) [(1)]
0.78 (≈ 1.5 µM) | 12.5 (≈ 24.1 µM) | 1.56 (≈ 3 µM) | CCO/N=C(\C(=O)NC1C(=O)N2C(C(=O)[O-])=C(C[n+]3ccc(CO)cc3)CSC12)c1nsc(N)n1 (stereo not drawn) [(2)]
0.78 (≈ 1.42 µM) | 12.5 (≈ 22.8 µM) | 1.56 (≈ 2.85 µM) | CCO/N=C(\C(=O)NC1C(=O)N2C(C(=O)[O-])=C(C[n+]3ccc(CCCO)cc3)CSC12)c1nsc(N)n1 (stereo not drawn) [(5)]

More lines, now with the values behind:

Compound | MIC (B. subtilis ATCC 6633) [µg/mL] | MIC (Ps. aeruginosa 2) [µg/mL] | MIC (S. marcescens 35) [µg/mL]
CCO/N=C(\C(=O)NC1C(=O)N2C(C(=O)[O-])=C(C[n+]3cccc(Cl)c3)CSC12)c1nsc(N)n1 (stereo not drawn) [(3)] | 0.78 (≈ 1.49 µM) | 6.25 (≈ 11.9 µM) | 3.13 (≈ 5.97 µM)
CCO/N=C(\C(=O)NC1C(=O)N2C(C(=O)[O-])=C(C[n+]3cc(C)cc(C)c3)CSC12)c1nsc(N)n1 (stereo not drawn) [(4)] | 1.56 (≈ 3.01 µM) | 6.25 (≈ 12.1 µM) | 3.13 (≈ 6.05 µM)
